{"source": "patent US20250270213A1", "about": "“PI3Ka INHIBITORS” (Synnovation Therapeutics, Inc., priority 2022, published 2025)", "data": [{"system": "T47D (PIK3CA H1047R) cells", "experiment": "pS473 AKT assay with 2.5% FBS, T47D cells", "type": "cell-based", "conditions": "Homo sapiens, pSer473 AKT, DMEM with 2.5% FBS, 2 h treatment, read-out: T47D_IC50", "summary_of_the_method": "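In-cell chemiluminescent ELISA of AKT Ser473 phosphorylation, using anti-pSer473 primary and HRP secondary antibodies on fixed cells. T47D (PIK3CA H1047R) cells had 2 h of compound treatment in DMEM containing 2.5% FBS; IC50 derived from dose-response.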", "units": {"IC50": "µM"}, "values": [{"smiles": "CCn1ncc2c3c(C(C)Nc4ccc(C)nc4-c4c[nH]nc4C)cc(C)cc3c(=O)n(C)c21", "note": "(stereo not drawn) [Example 235, 3-ethyl-4,7-dimethyl-9-(1-((6-methyl-2-(3-methyl-1H-pyrazol-4-yl)pyridin-3-yl)amino)ethyl)-3,4-dihydro-5H-pyrazolo[3,4-c]isoquinolin-5-one]", "IC50": "< 1"}, {"smiles": "CCn1ncc2c3c(C(C)Nc4ccc(Cl)nc4-c4ncn(C)n4)cc(C)cc3c(=O)n(CC(F)F)c21", "note": "(stereo not drawn) [Example 236, 9-(1-((6-chloro-2-(1-methyl-1H-1,2,4-triazol-3-yl)pyridin-3-yl)amino)ethyl)-4-(2,2-difluoroethyl)-3-ethyl-7-methyl-3,4-dihydro-5H-pyrazolo[3,4-c]isoquinolin-5-one]", "IC50": "< 1"}, {"smiles": "CCn1ncc2c3c(C(C)Nc4ccc(Cl)nc4-c4ccnc(C)c4)cc(C)cc3c(=O)n(CC(F)F)c21", "note": "(stereo not drawn) [Example 237, 9-(1-((6-chloro-2′-methyl-[2,4′-bipyridin]-3-yl)amino)ethyl)-4-(2,2-difluoroethyl)-3-ethyl-7-methyl-3,4-dihydro-5H-pyrazolo[3,4-c]isoquinolin-5-one]", "IC50": "< 1"}, {"smiles": "CCn1ncc2c3c(C(C)Nc4ccc(Cl)nc4-c4cncnc4)cc(C)cc3c(=O)n(CC(F)F)c21", "note": "(stereo not drawn) [Example 238, 9-(1-((6-chloro-2-(pyrimidin-5-yl)pyridin-3-yl)amino)ethyl)-4-(2,2-difluoroethyl)-3-ethyl-7-methyl-3,4-dihydro-5H-pyrazolo[3,4-c]isoquinolin-5-one]", "IC50": "< 1"}, {"smiles": "CCn1ncc2c3c(C(C)Nc4ccc(Cl)nc4-c4ccc(=O)n(C)c4)cc(C)cc3c(=O)n(CC(F)F)c21", "note": "(stereo not drawn) [Example 239, 9-(1-((6-chloro-1′-methyl-6′-oxo-1′,6′-dihydro-[2,3′-bipyridin]-3-yl)amino)ethyl)-4-(2,2-difluoroethyl)-3-ethyl-7-methyl-3,4-dihydro-5H-pyrazolo[3,4-c]isoquinolin-5-one]", "IC50": "< 1"}, {"smiles": "CCn1ncc2c3c(C(C)Nc4ccc(Cl)nc4-c4ccc(C(=O)NC)nc4)cc(C)cc3c(=O)n(CC(F)F)c21", "note": "(stereo not drawn) [Example 240, 6-chloro-3-((1-(4-(2,2-difluoroethyl)-3-ethyl-7-methyl-5-oxo-4,5-dihydro-3H-pyrazolo[3,4-c]isoquinolin-9-yl)ethyl)amino)-N-methyl-[2,3′-bipyridine]-6′-carboxamide]", "IC50": "< 1"}, {"smiles": "CCn1ncc2c3c(C(C)Nc4ccc(Cl)nc4C4CCN(C(C)=O)CC4)cc(C)cc3c(=O)n(C)c21", "note": "(stereo not drawn) [Example 241, 9-[1-[[2-(1-Acetyl-4-piperidyl)-6-chloro-3-pyridyl]amino]ethyl]-3-ethyl-4,7-dimethyl-pyrazolo[3,4-c]isoquinolin-5-one]", "IC50": "< 1"}, {"smiles": "Cc1cc(C(C)Nc2ccc(Cl)nc2-c2ncn(C)n2)c2c(c1)c(=O)n(C)c1c2cnn1CCO", "note": "(stereo not drawn) [Example 242, 9-(1-((6-Chloro-2-(1-methyl-1H-1,2,4-triazol-3-yl)pyridin-3-yl)amino)ethyl)-3-(2-hydroxyethyl)-4,7-dimethyl-3,4-dihydro-5H-pyrazolo[3,4-c]isoquinolin-5-one]", "IC50": "< 1"}, {"smiles": "CNC(=O)c1ccc(-c2nc(Cl)ccc2NC(C)c2cc(C)cc3c(=O)n(C)c4c(cnn4CCO)c23)cc1F", "note": "(stereo not drawn) [Example 243, 4-(6-chloro-3-((1-(3-(2-hydroxyethyl)-4,7-dimethyl-5-oxo-4,5-dihydro-3H-pyrazolo[3,4-c]isoquinolin-9-yl)ethyl)amino)pyridin-2-yl)-2-fluoro-N-methylbenzamide]", "IC50": "< 1"}, {"smiles": "Cc1cc(C(C)Nc2ccc(Cl)nc2-c2cnn(C)c2)c2c(c1)c(=O)n(C)c1c2cnn1CCO", "note": "(stereo not drawn) [Example 244, 9-(1-((6-chloro-2-(1-methyl-1H-pyrazol-4-yl)pyridin-3-yl)amino)ethyl)-3-(2-hydroxyethyl)-4,7-dimethyl-3,4-dihydro-5H-pyrazolo[3,4-c]isoquinolin-5-one]", "IC50": "< 1"}, {"smiles": "Cc1cc(C(C)Nc2ccc(Cl)nc2N2CCC(O)CC2)c2c(c1)c(=O)n(C)c1c2cnn1CCO", "note": "(stereo not drawn) [Example 245, 9-(1-((6-chloro-2-(4-hydroxypiperidin-1-yl)pyridin-3-yl)amino)ethyl)-3-(2-hydroxyethyl)-4,7-dimethyl-3,4-dihydro-5H-pyrazolo[3,4-c]isoquinolin-5-one]", "IC50": "< 1"}, {"smiles": "Cc1cc(C(C)Nc2ccc(Cl)nc2-c2ccc3ncccc3c2)c2c(c1)c(=O)n(C)c1c2cnn1CCO", "note": "(stereo not drawn) [Example 246, 9-(1-((6-chloro-2-(quinolin-6-yl)pyridin-3-yl)amino)ethyl)-3-(2-hydroxyethyl)-4,7-dimethyl-3,4-dihydro-5H-pyrazolo[3,4-c]isoquinolin-5-one]", "IC50": "< 1"}, {"smiles": "Cc1cc(C(C)Nc2ccc(Cl)nc2-c2ccc3c(cnn3C)c2)c2c(c1)c(=O)n(C)c1c2cnn1CCO", "note": "(stereo not drawn) [Example 247, 9-(1-((6-chloro-2-(1-methyl-1H-indazol-5-yl)pyridin-3-yl)amino)ethyl)-3-(2-hydroxyethyl)-4,7-dimethyl-3,4-dihydro-5H-pyrazolo[3,4-c]isoquinolin-5-one]", "IC50": "< 1"}, {"smiles": "Cc1cc(C(C)Nc2ccc(Cl)nc2-c2ccc3c(c2)CN(C)C3=O)c2c(c1)c(=O)n(C)c1c2cnn1CCO", "note": "(stereo not drawn) [Example 248, 9-(1-((6-chloro-2-(2-methyl-1-oxoisoindolin-5-yl)pyridin-3-yl)amino)ethyl)-3-(2-hydroxyethyl)-4,7-dimethyl-3,4-dihydro-5H-pyrazolo[3,4-c]isoquinolin-5-one]", "IC50": "< 1"}, {"smiles": "Cc1cc(C(C)Nc2ccc(C)nc2-c2cnn(C)c2)c2c(c1)c(=O)n(C)c1c2cnn1CCO", "note": "(stereo not drawn) [Example 249, 3-(2-hydroxyethyl)-4,7-dimethyl-9-(1-((6-methyl-2-(1-methyl-1H-pyrazol-4-yl)pyridin-3-yl)amino)ethyl)-3,4-dihydro-5H-pyrazolo[3,4-c]isoquinolin-5-one]", "IC50": "< 1"}, {"smiles": "Cc1cc(C(C)Nc2ccc(Cl)nc2-c2nnco2)c2c(c1)c(=O)n(C)c1c2cnn1CCO", "note": "(stereo not drawn) [Example 250, 9-(1-((6-chloro-2-(1,3,4-oxadiazol-2-yl)pyridin-3-yl)amino)ethyl)-3-(2-hydroxyethyl)-4,7-dimethyl-3,4-dihydro-5H-pyrazolo[3,4-c]isoquinolin-5-one]", "IC50": "< 1"}, {"smiles": "Cc1cc(C(C)Nc2ccc(Cl)nc2-c2nnn(C)n2)c2c(c1)c(=O)n(C)c1c2cnn1CCO", "note": "(stereo not drawn) [Example 251, 9-(1-((6-chloro-2-(2-methyl-2H-tetrazol-5-yl)pyridin-3-yl)amino)ethyl)-3-(2-hydroxyethyl)-4,7-dimethyl-3,4-dihydro-5H-pyrazolo[3,4-c]isoquinolin-5-one]", "IC50": "< 1"}, {"smiles": "Cc1cc(C(C)Nc2ccc(Cl)nc2-c2cncnc2)c2c(c1)c(=O)n(C)c1c2cnn1CCO", "note": "(stereo not drawn) [Example 252, 9-(1-((6-chloro-2-(pyrimidin-5-yl)pyridin-3-yl)amino)ethyl)-3-(2-hydroxyethyl)-4,7-dimethyl-3,4-dihydro-5H-pyrazolo[3,4-c]isoquinolin-5-one]", "IC50": "< 1"}, {"smiles": "CNC(=O)c1ccc(-c2nc(Cl)ccc2NC(C)c2cc(C)cc3c(=O)n(C)c4c(cnn4CCO)c23)cn1", "note": "(stereo not drawn) [Example 253, 5-[6-Chloro-3-[1-[3-(2-hydroxyethyl)-4,7-dimethyl-5-oxo-pyrazolo[3,4-c]isoquinolin-9-yl]ethylamino]-2-pyridyl]-N-methyl-pyridine-2-carboxamide]", "IC50": "< 1"}, {"smiles": "Cc1cc(C(C)Nc2ccc(Cl)nc2-c2ccc(=O)n(C)c2)c2c(c1)c(=O)n(C)c1c2cnn1CCO", "note": "(stereo not drawn) [Example 254, 9-[1-[[6-chloro-2-(1-methyl-6-oxo-3-pyridyl)-3-pyridyl]amino]ethyl]-3-(2-hydroxyethyl)-4,7-dimethyl-pyrazolo[3,4-c]isoquinolin-5-one]", "IC50": "< 1"}, {"smiles": "Cc1cc(C(C)Nc2ccc(Cl)nc2-c2ccn(C)c(=O)c2)c2c(c1)c(=O)n(C)c1c2cnn1CCO", "note": "(stereo not drawn) [Example 255, 9-[1-[[6-chloro-2-(1-methyl-2-oxo-4-pyridyl)-3-pyridyl]amino]ethyl]-3-(2-hydroxyethyl)-4,7-dimethyl-pyrazolo[3,4-c]isoquinolin-5-one]", "IC50": "< 1"}, {"smiles": "COc1cc(-c2nc(Cl)ccc2NC(C)c2cc(C)cc3c(=O)n(C)c4c(cnn4CCO)c23)ccn1", "note": "(stereo not drawn) [Example 256, 9-[1-[[6-chloro-2-(2-methoxy-4-pyridyl)-3-pyridyl]amino]ethyl]-3-(2-hydroxyethyl)-4,7-dimethyl-pyrazolo[3,4-c]isoquinolin-5-one]", "IC50": "< 1"}, {"smiles": "Cc1cc(C(C)Nc2ccc(Cl)nc2C2CCN(C)CC2)c2c(c1)c(=O)n(C)c1c2cnn1CCO", "note": "(stereo not drawn) [Example 257, 9-[1-[[6-Chloro-2-(1-methyl-4-piperidyl)-3-pyridyl]amino]ethyl]-3-(2-hydroxyethyl)-4,7-dimethyl-pyrazolo[3,4-c]isoquinolin-5-one]", "IC50": "< 1"}, {"smiles": "CC(=O)N1CCC(c2nc(Cl)ccc2NC(C)c2cc(C)cc3c(=O)n(C)c4c(cnn4CCO)c23)CC1", "note": "(stereo not drawn) [Example 258, 9-[1-[[2-(1-Acetyl-4-piperidyl)-6-chloro-3-pyridyl]amino]ethyl]-3-(2-hydroxyethyl)-4,7-dimethyl-pyrazolo[3,4-c]isoquinolin-5-one]", "IC50": "< 1"}, {"smiles": "Cc1cc(C(C)Nc2ccc(Cl)nc2-c2ncn(C)n2)c2c(c1)c(=O)n(CC(F)F)c1c2cnn1CCO", "note": "(stereo not drawn) [Example 259, 9-[1-[[6-Chloro-2-(1-methyl-1,2,4-triazol-3-yl)-3-pyridyl]amino]ethyl]-4-(2,2-difluoroethyl)-3-(2-hydroxyethyl)-7-methyl-pyrazolo[3,4-c]isoquinolin-5-one]", "IC50": "< 1"}, {"smiles": "CNC(=O)c1ccc(-c2nc(Cl)ccc2NC(C)c2cc(C)cc3c(=O)n(CC(F)F)c4c(cnn4CCO)c23)cn1", "note": "(stereo not drawn) [Example 260, 5-[6-Chloro-3-[1-[4-(2,2-difluoroethyl)-3-(2-hydroxyethyl)-7-methyl-5-oxo-pyrazolo[3,4-c]isoquinolin-9-yl]ethylamino]-2-pyridyl]-N-methyl-pyridine-2-carboxamide]", "IC50": "< 1"}, {"smiles": "CCn1c(=O)c2cc(C)cc(C(C)Nc3ccc(Cl)nc3-c3ncn(C)n3)c2c2cnn(CCO)c21", "note": "(stereo not drawn) [Example 261, 9-[1-[[6-Chloro-2-(1-methyl-1,2,4-triazol-3-yl)-3-pyridyl]amino]ethyl]-4-ethyl-3-(2-hydroxyethyl)-7-methyl-pyrazolo[3,4-c]isoquinolin-5-one]", "IC50": "< 1"}]}]}
